pIC50: −log10 of the molar value.
Legend:
Kuramochi cells = assay: BrdU cell proliferation assay (colorimetric ELISA), Kuramochi cells; format: cell-based; conditions: class symbols A-D
Description: A BrdU assay was used as a measure of proliferation based on the DNA replication process of proliferating cells. BrdU, a pyrimidine analog, is added to the cell culture and incorporated into the DNA of proliferating cells. The presence of the BrdU analog was then measured through a colorimetric ELISA. After fixation and permeabilization of cells, peroxidase-conjugated antibody recognizing BrdU is added and allowed to incubate, followed by thorough washing to remove unbound antibody. In order to quantify the amount of bound antibody, peroxidase substrate is added and produces a color that can be measured at 450 nm.
On day −1, Kuramochi cells (Sekisui XenoTech JCRB0098) were seeded at 2,000 cells/well in columns 2-12 of a 96 well plate (Corning, CLS3596) in 150 uL media and allowed to adhere overnight at 37 degree with 5% CO2. In order to assess specificity of the compounds, Kuramochi RB^KO cells were also plated and treated, as RB^KO cells were not expected to show a proliferative response to CCNE/CDK specific inhibitors.
On day 0, the source plate was prepared by adding 10 mM compounds and performing 3-fold serial dilutions for a 4-point dose response of each compound. Using a multichannel pipette, 2 uL of the contents of the source plate were stamped into an intermediate plate with 500 uL of RPMI 1640 Media, GlutaMAX Supplement (Life Technologies, 61870127) in each well of a Nunc 96 DeepWell™ plate, non-treated 96 DeepWell plate, 2 mL/well, sterile, natural, 60/cs (Sigma Z717274) and mixed thoroughly. 50 uL from row A of this intermediate plate were added to rows A-H of one plate of previously seeded Kuramochi cells, and each subsequent row of the intermediate plate was added to a full plate of cells.
On day 4, the plates were developed using the BrdU ELISA Cell Proliferation Assay according to manufacturer's instructions (Roche, 11647229001). Briefly, BrdU was diluted 1:100 in Gibco®, Opti-MEM® and 20 μL/well was added, shaken for 10 minutes at 350 rpm, and then returned to the incubator for 1 hour. Following incubation, the medium was discarded, and the cells were fixed by adding 200 μL of Fix/Denature solution. The anti-BrdU peroxidase antibody was diluted 1:1000 in OptiMEM, added at 100 μL/well, and incubated while shaking (350 rpm) for one hour. Three washes with PBS were performed to remove any unbound antibody, followed by the addition of 100 μL of substrate solution to each well. […] was then added to halt the reaction, and plates were read out using an Envision spectrophotometer (Perkin Elmer) set to read 450 nm absorbance. Background absorbance values from empty wells were subtracted from all samples and then normalized to DMSO treated wells.

CDK2/Cyclin E1(14-475) = CDK2/Cyclin E1(14-475) (Homo sapiens, UniProt P24941); assay: Caliper LabChip EZ Reader mobility shift assay, inhibition of CDK2/Cyclin E1 activity; format: biochemical; conditions: class symbols A-D
Description: Inhibition of CDK2/Cyclin E1 activity in the presence of compounds of the present disclosure was evaluated using a Caliper LabChip® EZ Reader mobility shift assay. In the assay, activated CDK2/Cyclin E1 catalyzes the phosphorylation of a fluorescently tagged peptide 5-FAM-QSPKKG-CONH2 (PerkinElmer, FL Peptide 18) which induces a difference in capillary electrophoresis mobility. The peptide substrate and product were measured, and the conversion ratio was used to determine the inhibition (as % activity and IC50 values) of CDK2/Cyclin E1. Reactions contained 50 mM HEPES pH 7.5, 10 mM MgCl2, 1 mM EDTA, 2 mM DTT, 0.01% Brij35, 0.5 mg/mL BSA, 0.1% DMSO, 2.5 nM CDK2/Cyclin E1(14-475), 100 μM ATP, and 1.5 μM fluorescent peptide substrate.
Dose titrations of inhibitors in 100% DMSO were combined with 3.25 nM CDK2/Cyclin E1(14-475) and 130 μM of ATP in reaction buffer. The mixtures were incubated for 30 minutes before the addition of fluorescent peptide substrate to initiate the kinase reaction. The final conditions were 2.5 nM CDK2/Cyclin E1(14-475), 100 μM ATP, and 1.5 μM fluorescent peptide. The reactions were stopped after 100 minutes with the addition of EDTA (6 mM final EDTA concentration). The stopped reactions were analyzed on a Caliper LabChip® EZ Reader II. The conversion ratios were normalized to yield % activity, plotted against compound concentration, and fit to a four-parameter equation to determine the IC50 for each compound.

Structure (SMILES) | pIC50 (Kuramochi cells) | pIC50 (CDK2/Cyclin E1(14-475))
COc1cc(C(=O)N2CC3CN(C(=O)Cc4c[nH]c5cc(Cl)ccc45)CC(C(=O)N[C@@H](CCCc4cccc(O)c4)C(=O)NCCCCCN)C3C2)ccc1OC(C)C (single isomer, unassigned) [I-258] | < 5.00 | < 5.00
COc1cc(C(=O)N2CC3CN(C(=O)Cc4c[nH]c5cc(Cl)ccc45)CC(C(=O)N[C@H](C(=O)NCCCCCNC(=O)OC(C)(C)C)C(C)OCc4ccccc4)C3C2)ccc1OC(C)C (single isomer, unassigned) [I-259] | 5.30 to 6.30 | ≥ 6.30
COc1cc(C(=O)N2CC3CN(C(=O)Cc4c[nH]c5cc(Cl)ccc45)CC(C(=O)N[C@H](C(=O)NCCCCCNC(=O)OC(C)(C)C)C(C)OCc4ccccc4)C3C2)ccc1OC(C)C (single isomer, unassigned) [I-260] | < 5.00 | 5.30 to 6.30
CNC(=O)[C@H](CCCc1ccccc1)NC(=O)C1CN(C(=O)Cc2c[nH]c3cc(Cl)ccc23)CC2CN(C(=O)c3ccc4oc(C)cc4c3)CC21 (stereo partly shown) [I-3] | < 5.00 | < 5.00
CNC(=O)[C@H](CCCc1ccccc1)NC(=O)C1CN(C(=O)Cc2c[nH]c3cc(Cl)ccc23)CC2CN(C(=O)c3ccc(OC)cc3)CC21 (stereo partly shown) [I-5] | < 5.00 | < 5.00
CNC(=O)[C@H](CCCc1ccccc1)NC(=O)C1CN(C(=O)Cc2c[nH]c3cc(Cl)ccc23)CC2CN(C(=O)c3ccc(OC4CC4)cc3)CC21 (stereo partly shown) [I-6] | < 5.00 | 5.30 to 6.30
CNC(=O)[C@H](CCCc1ccccc1)NC(=O)C1CN(C(=O)Cc2c[nH]c3cc(Cl)ccc23)CC2CN(C(=O)c3ccc(OCC(C)C)cc3)CC21 (stereo partly shown) [I-7] | 5.00 to 5.30 | 5.30 to 6.30
CNC(=O)[C@H](CCCc1ccccc1)NC(=O)C1CN(C(=O)Cc2c[nH]c3cc(Cl)ccc23)CC2CN(C(=O)c3ccc4[nH]ncc4c3)CC21 (stereo partly shown) [I-8] | < 5.00 | < 5.00
CNC(=O)[C@H](CCCc1ccccc1)NC(=O)C1CN(C(=O)Cc2c[nH]c3cc(Cl)ccc23)CC2CN(C(=O)c3ccc(OCCC4CC4)c(OC)c3)CC21 (stereo partly shown) [I-9] | < 5.00 | 5.00 to 5.30
CNC(=O)[C@H](CCCc1ccccc1)NC(=O)C1CN(C(=O)Cc2c[nH]c3cc(Cl)ccc23)CC2CN(C(=O)c3cnc4ccccc4c3)CC21 (stereo partly shown) [I-10] | < 5.00 | < 5.00
CNC(=O)[C@H](CCCc1ccccc1)NC(=O)C1CN(C(=O)Cc2c[nH]c3cc(Cl)ccc23)CC2CN(C(=O)c3cccc(-c4ccccc4)c3)CC21 (stereo partly shown) [I-11] | < 5.00 | < 5.00
CNC(=O)[C@H](CCCc1ccccc1)NC(=O)C1CN(C(=O)Cc2c[nH]c3cc(Cl)ccc23)CC2CN(C(=O)c3nc4ccccc4[nH]3)CC21 (stereo partly shown) [I-12] | < 5.00 | < 5.00
CNC(=O)[C@H](CCCc1ccccc1)NC(=O)C1CN(C(=O)Cc2c[nH]c3cc(Cl)ccc23)CC2CN(C(=O)c3ccc(-c4ccncc4)cc3)CC21 (stereo partly shown) [I-14] | < 5.00 | < 5.00
CNC(=O)[C@H](CCCc1ccccc1)NC(=O)C1CN(C(=O)Cc2c[nH]c3cc(Cl)ccc23)CC2CN(C(=O)c3ccc(C#N)cn3)CC21 (stereo partly shown) [I-15] | < 5.00 | < 5.00
CNC(=O)[C@H](CCCc1ccccc1)NC(=O)C1CN(C(=O)Cc2c[nH]c3cc(Cl)ccc23)CC2CN(C(=O)c3cnc(OC)cn3)CC21 (stereo partly shown) [I-16] | < 5.00 | < 5.00
CNC(=O)[C@H](CCCc1ccccc1)NC(=O)C1CN(C(=O)Cc2c[nH]c3cc(Cl)ccc23)CC2CN(C(=O)c3ccc4cnccc4c3)CC21 (stereo partly shown) [I-18] | < 5.00 | < 5.00
CNC(=O)[C@H](CCCc1ccccc1)NC(=O)C1CN(C(=O)Cc2c[nH]c3cc(Cl)ccc23)CC2CN(C(=O)c3cccc(CO)n3)CC21 (stereo partly shown) [I-20] | < 5.00 | < 5.00
CNC(=O)[C@H](CCCc1ccccc1)NC(=O)C1CN(C(=O)Cc2c[nH]c3cc(Cl)ccc23)CC2CN(C(=O)c3ccc(OC)nn3)CC21 (stereo partly shown) [I-21] | < 5.00 | < 5.00

Structure (SMILES) | pIC50 (Kuramochi cells) | pIC50 (CDK2/Cyclin E1(14-475))
CNC(=O)[C@H](CCCc1ccccc1)NC(=O)C1CN(C(=O)Cc2c[nH]c3cc(Cl)ccc23)CC2CN(C(=O)c3ccc(OC(C)C)c(Cl)c3)CC21 (stereo partly shown) [I-24] | < 5.00 | < 5.00
CNC(=O)[C@H](CCCc1ccccc1)NC(=O)C1CN(C(=O)Cc2c[nH]c3cc(Cl)ccc23)CC2CN(C(=O)c3ccc(OC(F)(F)F)cc3)CC21 (stereo partly shown) [I-25] | < 5.00 | 5.30 to 6.30
CNC(=O)[C@H](CCCc1ccccc1)NC(=O)C1CN(C(=O)Cc2c[nH]c3cc(Cl)ccc23)CC2CN(C(=O)c3cc(-c4ccccc4)nn3C)CC21 (stereo partly shown) [I-26] | < 5.00 | 5.00 to 5.30
CNC(=O)[C@H](CCCc1ccccc1)NC(=O)C1CN(C(=O)Cc2c[nH]c3cc(Cl)ccc23)CC2CN(C(=O)c3cn(-c4ccccc4)cn3)CC21 (stereo partly shown) [I-27] | < 5.00 | < 5.00
CNC(=O)[C@H](CCCc1ccccc1)NC(=O)C1CN(C(=O)Cc2c[nH]c3cc(Cl)ccc23)CC2CN(C(=O)c3n[nH]c4ccccc34)CC21 (stereo partly shown) [I-28] | < 5.00 | < 5.00
CNC(=O)[C@H](CCCc1ccccc1)NC(=O)C1CN(C(=O)Cc2c[nH]c3cc(Cl)ccc23)CC2CN(C(=O)c3cc(C4CC4)[nH]n3)CC21 (stereo partly shown) [I-30] | < 5.00 | < 5.00
CNC(=O)[C@H](CCCc1ccccc1)NC(=O)C1CN(C(=O)Cc2c[nH]c3cc(Cl)ccc23)CC2CN(C(=O)c3ccc(S(N)(=O)=O)c(OC)c3)CC21 (stereo partly shown) [I-31] | < 5.00 | < 5.00
CNC(=O)[C@H](CCCc1ccccc1)NC(=O)C1CN(C(=O)Cc2c[nH]c3cc(Cl)ccc23)CC2CN(C(=O)c3ccc(OC)c(O)c3)CC21 (stereo partly shown) [I-34] | < 5.00 | 5.00 to 5.30
CNC(=O)[C@H](CCCc1ccccc1)NC(=O)C1CN(C(=O)Cc2c[nH]c3cc(Cl)ccc23)CC2CN(C(=O)c3cc4ccccc4cn3)CC21 (stereo partly shown) [I-37] | < 5.00 | < 5.00
CNC(=O)[C@H](CCCc1ccccc1)NC(=O)C1CN(C(=O)Cc2c[nH]c3cc(Cl)ccc23)CC2CN(C(=O)c3cc4cc(C)ccc4[nH]3)CC21 (stereo partly shown) [I-38] | < 5.00 | < 5.00
CNC(=O)[C@H](CCCc1ccccc1)NC(=O)C1CN(C(=O)Cc2c[nH]c3cc(Cl)ccc23)CC2CN(C(=O)c3cc(C)n(C)n3)CC21 (stereo partly shown) [I-39] | < 5.00 | < 5.00
CNC(=O)[C@H](CCCc1ccccc1)NC(=O)C1CN(C(=O)Cc2c[nH]c3cc(Cl)ccc23)CC2CN(C(=O)c3cn4ccncc4n3)CC21 (stereo partly shown) [I-40] | < 5.00 | < 5.00
CCOc1cnc(C(=O)N2CC3CN(C(=O)Cc4c[nH]c5cc(Cl)ccc45)CC(C(=O)N[C@@H](CCCc4ccccc4)C(=O)NC)C3C2)cn1 (stereo partly shown) [I-41] | < 5.00 | < 5.00
CNC(=O)[C@H](CCCc1ccccc1)NC(=O)C1CN(C(=O)Cc2c[nH]c3cc(Cl)ccc23)CC2CN(C(=O)c3ccc4cccn4c3)CC21 (stereo partly shown) [I-43] | < 5.00 | < 5.00
CNC(=O)[C@H](CCCc1ccccc1)NC(=O)C1CN(C(=O)Cc2c[nH]c3cc(Cl)ccc23)CC2CN(C(=O)c3cnc(C4CC4)nc3)CC21 (stereo partly shown) [I-44] | < 5.00 | < 5.00
CNC(=O)[C@H](CCCc1ccccc1)NC(=O)C1CN(C(=O)Cc2c[nH]c3cc(Cl)ccc23)CC2CN(C(=O)c3ccc4c(c3)CNC4=O)CC21 (stereo partly shown) [I-45] | < 5.00 | < 5.00
CNC(=O)[C@H](CCCc1ccccc1)NC(=O)C1CN(C(=O)Cc2c[nH]c3cc(Cl)ccc23)CC2CN(C(=O)c3ccc(OC(C)C)c(F)c3)CC21 (stereo partly shown) [I-46] | < 5.00 | 5.30 to 6.30

Source: US12053459B2, “CDK2 inhibitors and methods of using the same” (Cedilla Therapeutics, Inc., priority 2021, dated 2024)
